Earlier results as cited in patent EP0341603A2, “Atrial peptide derivatives” (ABBOTT LABORATORIES, priority 1988, dated 1989).
Bridge positions count the residues as written; N and C are the ends. Ends that are not written are not given here.

Conditions: relative to furosemide

## alpha-hANP: alpha-human atrial natriuretic polypeptide isolated from human atrium, a polypeptide consisting of 28 amino acids (SLRRSSCFGGRMDRIGAQSGLGCNSFRY; disulfide 7-23 (inferred); ends not checked; UniProt P01160 124-151, looked up)
  diuretic action, times as strong as that of furosemide: about 1000 times
